# Measured values from article PMC8950151, “Synthesis and Evaluation of the Antifungal and Toxicological Activity of Nitrofuran Derivatives” (Pharmaceutics, 2022).
# Like-named read-outs stand apart in the source and are kept apart here.
# Columns and labels:
# [1] = test system: Candida albicans (ATCC 90028); test: Susceptibility test (CLSI M27-A3 broth microdilution, resazurin readout), MIC90; assay type: cell-based; details: ATCC90028, C. albicans, 24 h, 37 °C
# C. krusei (ATCC 6258) [2] = test: as above; assay type: cell-based, Candida krusei; details: Pichia kudriavzevii, ATCC6258, 24 h
# C. glabrata (ATCC 90030) [3] = test: as above; assay type: cell-based, Candida glabrata; details: Nakaseomyces glabratus, ATCC90030, 24 h, 37 °C
# [4] = test system: Cryptococcus neoformans (H99/ATCC 208821); test: as above; assay type: cell-based; details: ATCC208821, 48 h
# [5] = test system: Histoplasma capsulatum (G217-B/ATCC 26032); test: microbe, parasite or virus in culture; assay type: cell-based; details: ATCC26032, 144 h
# T. rubrum (ATCC 28289) [6] = test: Susceptibility assay for dermatophytes (CLSI M38-A2, resazurin), MIC90; assay type: cell-based; details: Trichophyton rubrum, ATCC28289, 96 h, 35 °C
# [7] = test system: Trichophyton mentagrophytes (ATCC 11481); test: as above; assay type: cell-based; details: T. mentagrophytes, 35 °C
# [8] = test system: Candida albicans (ATCC 90028); test: Minimum fungicidal concentration (MFC); assay type: cell-based; details: ATCC90028, C. albicans
# C. krusei (ATCC 6258) [9] = test: Minimum fungicidal concentration (MFC); assay type: cell-based, Candida krusei; details: Pichia kudriavzevii, ATCC6258
# C. glabrata (ATCC 90030) [10] = test: Minimum fungicidal concentration (MFC); assay type: cell-based, Candida glabrata; details: Nakaseomyces glabratus, ATCC90030
# [11] = test system: Cryptococcus neoformans (H99/ATCC 208821); test: Minimum fungicidal concentration (MFC); assay type: cell-based; details: ATCC208821, C. neoformans
# [12] = test system: Histoplasma capsulatum (G217-B/ATCC 26032); test: microbe, parasite or virus in culture; assay type: cell-based; details: ATCC26032
# [13] = test system: Paracoccidioides brasiliensis (Pb 18); test: microbe, parasite or virus in culture; assay type: cell-based; details: Paracoccidioides brasiliensis
# T. rubrum (ATCC 28289) [14] = test: Minimum fungicidal concentration (MFC); assay type: cell-based, Trichophyton rubrum; details: Trichophyton rubrum, ATCC28289
# [15] = test system: Trichophyton mentagrophytes (ATCC 11481); test: Minimum fungicidal concentration (MFC); assay type: cell-based; details: Trichophyton mentagrophytes, ATCC11481; T. mentagrophytes
# [16] = test system: A549 (ATCC CCL-185) lung epithelial cell line; test: Cytotoxicity assay in monolayer by resazurin colorimetric method; assay type: cell-based; details: Homo sapiens, A549 cells, 72 h
# in vitro = details: human
# in vivo = details: AU37 [glp-4 (bn2) I, sek-1 (km4) X], Caenorhabditis elegans, C. elegans larvae viability
# Method: The experiments were carried out with the mutant strain (AU37 [glp-4 (bn2) I; […]]). The strain was maintained on plates containing nematode growth medium (NGM) seeded with Escherichia coli OP50 at 16 °C. The stage of synchronization of young adults at stage L4 was performed for the toxicity test. About 20 larvae were transferred to each well of 96-well plates containing 100 μL of a medium composed of 60% of 50 mM NaCl; 40% BHI broth; 10 mg/mL cholesterol in ethanol; 200 mg/mL ampicillin and 90 mg/mL kanamycin. Then, 100 μL of dilutions of nitrofuran derivatives (showing the best selectivity index against the fungal species) were added. […] Plates were incubated at 25 °C for 24 h. Survival was assessed by the mobility and shape of the nematode (stick-shaped larvae were considered dead, while sinusoidal larvae were considered alive) under an inverted optical microscope on 40× objective lenses.
# [17] = Trichophyton mentagrophytes, ATCC11481, 96 h, read-out: MIC90
SMILES,MIC90 [1],MIC90 (C. krusei (ATCC 6258) [2]),MIC90 (C. glabrata (ATCC 90030) [3]),MIC90 [4],MIC90 [5],MIC90 (T. rubrum (ATCC 28289) [6]),"MIC90 [7, 17]",MFC [8],MFC (C. krusei (ATCC 6258) [9]),"MFC (C. glabrata (ATCC 90030) [10]; C. glabrata, read-out: MFC)",MFC [11],MFC [12],MFC [13],MFC (T. rubrum (ATCC 28289) [14]),MFC [15],IC50 [16],IC50 (in vitro),further results
O=C(/C=C/c1ccc([N+](=O)[O-])o1)c1ccc(F)cc1 [Compound 9],15.6 µg/mL,250 µg/mL,31.2 µg/mL,7.81 µg/mL,3.9 µg/mL,0.98 µg/mL,1.95 µg/mL,31.2 µg/mL,> 250 µg/mL,> 250 µg/mL,15.6 µg/mL,3.9 µg/mL,1.95 µg/mL,1.95 µg/mL,1.95 µg/mL,23.4 µg/mL,47.2 µg/mL,
O=C(/C=C/c1ccc([N+](=O)[O-])o1)c1ccc(Cl)cc1 [Compound 10],250 µg/mL,> 250 µg/mL,> 250 µg/mL,250 µg/mL,7.81 µg/mL,3.9 µg/mL,3.9 µg/mL,> 250 µg/mL,> 250 µg/mL,> 250 µg/mL,≥ 250 µg/mL,15.6 µg/mL,0.98 µg/mL,7.81 µg/mL,7.81 µg/mL,38.7 µg/mL,215 µg/mL,
O=C(/C=C/c1ccc([N+](=O)[O-])o1)c1ccc(Br)cc1 [Compound 11],125 µg/mL,250 µg/mL,250 µg/mL,≥ 250 µg/mL,0.48 µg/mL,7.8 µg/mL,7.8 µg/mL,250 µg/mL,> 250 µg/mL,> 250 µg/mL,≥ 250 µg/mL,0.48 µg/mL,0.98 µg/mL,15.6 µg/mL,7.8 µg/mL,12.2 µg/mL,62.6 µg/mL,"viability at 24 h, 250 µg/mL (in vivo): 80%"
COc1ccc(C(=O)/C=C/c2ccc([N+](=O)[O-])o2)cc1 [Compound 12],250 µg/mL,250 µg/mL,250 µg/mL,62.5 µg/mL,7.81 µg/mL,0.98 µg/mL,,> 250 µg/mL,> 250 µg/mL,> 250 µg/mL,125 µg/mL,15.6 µg/mL,3.9 µg/mL,1.95 µg/mL,1.95 µg/mL,250 µg/mL,228 µg/mL,"MIC90 ([7]; 96 h): 1.95 µg/mL; MIC90 ([7]; Trichophyton mentagrophytes, ATCC11481, 96 h): 0.98 µg/mL; viability at 24 h, 250 µg/mL (in vivo): > 94%"
CSc1ccc(C(=O)/C=C/c2ccc([N+](=O)[O-])o2)cc1 [Compound 13],> 250 µg/mL,> 250 µg/mL,> 250 µg/mL,≥ 250 µg/mL,125 µg/mL,0.98 µg/mL,0.98 µg/mL,> 250 µg/mL,> 250 µg/mL,> 250 µg/mL,≥ 250 µg/mL,125 µg/mL,0.98 µg/mL,1.95 µg/mL,0.98 µg/mL,17.9 µg/mL,4.15 µg/mL,
O=C(/C=C/c1ccc([N+](=O)[O-])o1)c1ccc(-n2ccnc2)cc1 [Compound 14],15.6 µg/mL,15.6 µg/mL,7.81 µg/mL,3.9 µg/mL,7.81 µg/mL,1.95 µg/mL,1.95 µg/mL,62.5 µg/mL,31.2 µg/mL,,3.9 µg/mL,7.81 µg/mL,1.95 µg/mL,3.9 µg/mL,1.95 µg/mL,33.4 µg/mL,26.8 µg/mL,MFC (C. glabrata (ATCC 90030) [10]): 7.81 µg/mL
"O=C(/C=C/c1ccc([N+](=O)[O-])o1)c1cc(F)c(Cl)cc1Cl [Compound 17, (E)-1-(2,4-dichloro-5-fluorophenyl)-3-(5-nitrofuran-2-yl)prop-2-en-1-one]",> 250 µg/mL,> 250 µg/mL,> 250 µg/mL,≥ 250 µg/mL,> 250 µg/mL,> 250 µg/mL,> 250 µg/mL,> 250 µg/mL,> 250 µg/mL,> 250 µg/mL,≥ 250 µg/mL,> 250 µg/mL,3.9 µg/mL,> 250 µg/mL,> 250 µg/mL,68.2 µg/mL,1.56 µg/mL,
